Reference: patent US12667538B2, “Vilazodone pharmaceutical composition, preparation method therefor and use thereof” (SHANGHAI YONSUN BIOTECHNOLOGY CO., LTD., priority 2020, dated 2026)

Assay: Particle size and distribution on a laser particle analyzer
Format: physicochemical
Details: drug substance used for formulas 14-23
Protocol: According to formula 1 shown in Table 1, the raw and auxiliary materials were weighed out and well mixed to obtain the suspension. The particle size was measured on a laser particle analyzer (parameter settings: dispersion medium: water; refractive index of dispersion medium: 1.333; absorbance of sample material: 0.05; refractive index of sample material: 1.711). The particle size morphology of the particles in the ground suspension was observed under a polarized light microscope. The particle size morphology of the solid particles of vilazodone in the suspension under the polarized light microscope is shown in FIG. 2.
The particle size of formulas 3, 4 and 5 and the distribution thereof were measured on a laser particle analyzer using the following parameter settings: dispersion medium: water; refractive index of dispersion medium: 1.333; absorbance of sample material: 0.05; refractive index of sample material: 1.711. The particle size and the distribution of formula 6 were measured on a nano particle size analyzer (NICOMP Particle Sizing Systems) using the following parameter settings: dispersion medium: water; refractive index of dispersion medium: 1.333; viscosity: 0.933 cp; temperature: 23° C.; luminous intensity setting: 300 kHz.
The particle size of formula 7 and the distribution thereof were measured on a laser particle analyzer using the following parameter settings: dispersion medium: water; refractive index of dispersion medium: 1.333; absorbance of sample material: 0.05; refractive index of sample material: 1.711. […]
According to the formulas shown in Table 12, the drug substance of different particle sizes and auxiliary materials were weighed out and well mixed by stirring to form suspensions, and formulas 8-13 were obtained. The particle size and the distribution thereof were measured on a laser particle analyzer using the following parameter settings: dispersion medium: water; refractive index of dispersion medium: 1.333; absorbance of sample material: 0.05; refractive index of sample material: 1.711. […]

D10: 8.4 μm
D50: 20.6 μm
D90: 43.9 μm
Compound: Cl.N#Cc1ccc2[nH]cc(CCCCN3CCN(c4ccc5oc(C(N)=O)cc5c4)CC3)c2c1 [Vilazodone hydrochloride, 2-benzofurancarboxamide, 5-[4-[4-(5-cyano-1H-indol-3-yl)butyl]-1-piperazinyl] hydrochloride (1:1)]
